# Source: patent publication US20140012013A1, “METHOD FOR PRODUCING PYRAZOLE CARBOXYLIC ACID DERIVATIVE” (SHIONOGI & CO., LTD., priority 2011, published 2014)
# Assay: log k′ (degree of lipophilic character) from HPLC retention time under gradient condition
# Assay type: physicochemical
# Conditions: XTerra MS C18 5 μm, 2.1×100 mm column; acetonitrile/pH6.8 buffer 5:95~95:5/20 min; flow 0.25 mL/min
# Experimental: log k′ is a value which means degree of the lipophilic character, and is calculated by the following formula.
# tR: retention time of compound under gradient condition t0: retention time of standard material not retained in column
# XTerra MS C18 5 μm, 2.1×100 mm column (made by Waters) was used for measurement. The elution was a straight line inclination of acetonitrile/pH6.8 buffer (5:95˜95:5/20 min) at flow velocity 0.25 mL/min.
row,SMILES,log k′
1,COC(=O)NC12CC3CC(C1)C(NC(=O)c1cnn(/C=C/C(C)(C)NC(C)=O)c1OCC(C)C)C(C3)C2 (centres unmarked) [Compound (XIII-1-2)],0.886
2,CC(=O)NCC12CC3CC(C1)C(NC(=O)c1cnn(/C=C/C(C)(C)NC(C)=O)c1OCC(C)C)C(C3)C2 (centres unmarked) [Compound (XIII-1-3)],0.838
